Source: US20120135089A1, “E3 LIGASE INHIBITORS” (priority 2009, published 2012)
“Also recorded” adds a separate entry of the source.

Tests used:
[1] = target: T1, Flag-Mdm2-HA-MdmX complex (Homo sapiens, UniProt O15151+Q00987); experiment: in vitro ubiquitination assay, Flag-Mdm2/HA-MdmX complex; format: biochemical
T1 construct: unlike the full-length complex, which was produced through co-expression of Mdm2 and MdmX in SF9 cells; made in house; host or cells: Sf9 insect cells, co-infection; purified on M2-agarose, then HA-agarose
Method: These assays were performed with 100 ng of full-length Flag-Mdm2 or 200 ng of Flag-Mdm2/HA-MdmX complexes (100 ng of each protein as each are present in a 1:1 ratio, when purified), ^32P-labeled ubiquitin, UbCH5c, and E1. Following a 30-minute incubation at 37° C., reactions were terminated and resolved on a SDS-PAGE gel followed by autoradiography. PC indicates positive control, and NC indicates negative control with UbCH5C eliminated from the reaction. The gels were quantified by phosphoimaging using ImageQuant software (GE Healthcare Bio-Sciences Corp., Piscataway, N.J.). […]
Ubiquitin reactions contain 50 ng E1, 1 μg PK-ubiquitin, 50 ng His-UbCH5C, and 100 ng Flag-Mdm2. […] The products were resolved by SDS-PAGE and analyzed by Western blotting with anti-p53, anti-Mdm2 SMP14, 2A10, 3G5 mix, or anti-MdmX. […] The graph represents the quantification of the Mdm2-ubiquitin species, normalized to the positive control. […]
Full-length Mdm2 in vitro ubiquitination reactions were performed in 15 μl reaction mixtures containing 50 mM TrisHC1 pH 7.5, 5 mM MgCl2, 2 mM NaF, 2 mM ATP, 0.6 mM DTT, 50 ng E1 (Boston Biochem, Cat. No. E-305), 1 μg PK-ubiquitin, 50 ng His-UbCH5C, and 100 ng Flag-Mdm2. […] The products were resolved by SDS-PAGE and analyzed by Western blot with anti-p53, anti-Mdm2 SMP14, 2A10, 3G5 mix, or anti-MdmX antibodies. […]

[2] = system: wild-type, p53−/− and p53−/−; mdm2−/− MEFs; experiment: Alamar Blue viability assay, mouse embryonic fibroblasts; format: cell-based; details: 48 hours
Method: RKO and RKO-E6 cells were seeded in 384-well plates and treated with a dilution series of MEL23 for 48 hours as indicated. Alamar Blue was added for 16 hours and fluorescence determined on a Victor3 Plate Reader. The median percent inhibition of five replicates was determined and normalized to a no treatment control. One standard deviation is shown. […] Cells were seeded in 384-well plates and treated with a dilution series of MEL23 for 48 hours at the indicated concentrations. Alamar Blue was added for 16 hours and fluorescence determined on a Victor3 Plate Reader. The median percent inhibition of five replicates was determined and normalized to a no treatment control. One standard deviation is shown.
Cells were seeded in 384-well black clear-bottom plates (Corning Inc., Corning, N.Y., Cat. No. 07-200-655). Cells were then treated with the indicated concentration of compound. Plates were incubated for 48 hours at 37° C. Alamar Blue (Invitrogen, Cat. No. DAL1100) was added to each well to a final concentration of 10% and incubated at 37° C. for 16 hours. Fluorescence intensity was determined using the Victor3 Plate Reader (PerkinElmer). Median percent survival or growth inhibition was calculated and normalized to a no treatment control.

Mdm2 = experiment: Western blot of Mdm2 in MEFs; format: cell-based, mouse; details: 5 μg/ml (14 μM), 6 hours
Method: MEFs were treated with 5 μg/ml (14 μM) of MEL23 for 6 hours. Cells were lysed and analyzed by Western blotting using anti-Mdm2 and anti-eIF4E antibodies. NT indicates a no treatment control.
Cells were seeded and treated with the indicated compound(s). Cells were lysed after each time point in a buffer of 50 mM TrisHCl pH 7.5, 200 mM NaCl, 0.5% NP-40, and 1 complete mini EDTA-free protease inhibitor cocktail tablet per 10 mL of buffer (Roche, Cat. No. 8360170). Protein content was quantified using a Biorad protein assay reagent (Bio-Rad Laboratories, Hercules, Calif., Cat. No. 500-0006). SDS sample buffer was added to the samples, and the mixture was boiled for 5 minutes. Equal amounts of protein were resolved on a 1D SDS-PAGE gel. Following separation proteins were transferred to nitrocellulose membrane, blocked with 5% milk, and then incubated with primary antibody overnight at 4° C. The membrane was incubated with secondary-HRP antibody for 45 minutes at room temperature and developed with SuperSignal West Pico Substrate (Pierce, Rockford, Ill., Cat. No. 34080).

T1 sequence (Q00987 whole entry): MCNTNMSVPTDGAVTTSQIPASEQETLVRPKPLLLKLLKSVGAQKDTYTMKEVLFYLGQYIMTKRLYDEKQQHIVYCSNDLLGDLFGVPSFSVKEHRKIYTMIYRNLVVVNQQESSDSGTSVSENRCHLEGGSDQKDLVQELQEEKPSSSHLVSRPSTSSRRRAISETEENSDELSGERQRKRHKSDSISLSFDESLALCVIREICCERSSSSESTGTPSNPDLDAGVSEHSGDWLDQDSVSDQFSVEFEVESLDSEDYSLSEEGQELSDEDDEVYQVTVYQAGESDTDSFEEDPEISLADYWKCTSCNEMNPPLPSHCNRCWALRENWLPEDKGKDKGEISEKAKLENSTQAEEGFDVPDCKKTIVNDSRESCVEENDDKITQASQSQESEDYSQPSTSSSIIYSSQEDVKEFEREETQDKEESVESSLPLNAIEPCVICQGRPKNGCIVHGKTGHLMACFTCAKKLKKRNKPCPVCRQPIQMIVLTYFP
T1 sequence (O15151 whole entry): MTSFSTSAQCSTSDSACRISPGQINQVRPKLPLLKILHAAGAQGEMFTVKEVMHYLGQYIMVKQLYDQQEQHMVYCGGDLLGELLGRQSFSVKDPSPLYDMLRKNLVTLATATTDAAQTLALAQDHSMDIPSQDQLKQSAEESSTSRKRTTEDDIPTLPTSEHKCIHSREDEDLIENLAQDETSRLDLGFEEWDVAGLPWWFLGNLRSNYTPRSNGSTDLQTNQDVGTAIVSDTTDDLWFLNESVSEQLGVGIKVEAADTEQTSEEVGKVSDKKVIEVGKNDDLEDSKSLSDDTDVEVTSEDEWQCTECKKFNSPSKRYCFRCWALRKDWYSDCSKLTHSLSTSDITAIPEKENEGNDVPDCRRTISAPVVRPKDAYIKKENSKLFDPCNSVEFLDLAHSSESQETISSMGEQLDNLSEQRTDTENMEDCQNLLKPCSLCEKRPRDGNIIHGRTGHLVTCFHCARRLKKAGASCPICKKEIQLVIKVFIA

CCCCn1c(=O)[nH]c(O)c(C2NCCc3c2[nH]c2ccccc32)c1=O (stereo not drawn) [MEL23]
ligase activity of the Mdm2-MdmX complex in vitro [1]: significantly decreased the overall ligase activity; also recorded: inhibited
activity of the Mdm2-MdmX complex toward p53 in vitro ([1]; Western blot): inhibited the activity of the Mdm2-MdmX complex toward p53
survival of p53−/− MEFs ([2]; dilution series): also decreased
survival of wild-type MEFs ([2]; dilution series): survival of the wild-type cells decreased the greatest
survival of p53−/− mdm2−/− MEFs ([2]; highest concentration tested): Only a small decrease in cell survival
Mdm2 level in MEFs (Mdm2): increased Mdm2 in MEFs
